According to publication PMC4383003, “Transfer hydrogenation catalysis in cells as a new approach to anticancer drug design” (Nature Communications, 2015):
“And” between values parts separate entries of the source, which are not always exact repeats. Equal values may be shown once.

Assays:
[1] = tested on: A2780 human ovarian cancer cells; assay: In vitro growth inhibition assay (SRB), A2780; format: cell-based
Procedure: A2780 human ovarian carcinoma and MRC5 human fetal lung fibroblasts were obtained from the European Collection of Cell Cultures. Both cell lines were grown in Roswell Park Memorial Institute medium (RPMI-1640) supplemented with 10% of fetal calf serum, 1% of 2 mM glutamine and 1% penicillin/streptomycin. All cells were grown as adherent monolayers at 310 K in a 5% CO2-humidified atmosphere and passaged at ca. 70–80% confluency.
The antiproliferative activity of complexes 1–8 was determined in A2780 ovarian cancer cells and MRC5 fibroblasts. Briefly, 96-well plates were used to seed 5,000 cells per well. The plates were left to pre-incubate with drug-free medium at 310 K for 48 h before adding different concentrations of the compounds to be tested. A drug exposure period of 24 h was allowed. After this, supernatants were removed by suction and each well was washed with PBS. A further 72 h were allowed for the cells to recover in drug-free medium at 310 K. The sulforhodamine B (SRB) assay was used to determine cell viability. IC50 values, as the concentration that causes 50% cell death, were determined as duplicates of triplicates in two independent sets of experiments and their s.d. were calculated.

[2] = tested on: A2780 ovarian cancer cells; assay: Cell viability on co-administration of Ru complexes (1/3 x IC50) with formate or acetate; format: cell-based, human; conditions: for Cell viability / Cell viability percentages: A2780, complex 1/3 x IC50, 24 h
Procedure: Cell viability assays were carried out with complexes 1–8 in A2780 ovarian cancer cells. These experiments were carried out as described above with the following modifications: a fixed concentration of each Ru complex equal to 1/3 × IC50 was used in co-administration with three different concentrations of sodium formate or sodium acetate (0.5, 1.0 and 2.0 mM). To prepare the stock solution of the drug, the complex was dissolved in 5% dimethylsulfoxide and diluted in a 1:1 mixture of 0.9% saline:cell culture medium. This stock was further diluted using RPMI-1640 until working concentrations were achieved. Separately, stock solutions of sodium formate or sodium acetate were prepared in saline. The complex and formate were added to each well independently, but within 5 min of each other.
Supplementary Table 7: Percent cell viability of A2780 ovarian cancer cells exposed to equipotent concentrations of ruthenium complexes 1-3 and 5-8 (1/3 x […]
The experiments included 48 h of pre-incubation and 72 h of drug recovery, both in drug-free medium at 310 K in a 5% CO2 humidified atmosphere. All the experiments were performed as duplicates of triplicates in independent experiments and the error bars were calculated as the standard deviation from the mean.
Supplementary Table 11: Cell viability (%) of A2780 ovarian cancer cells exposed […]
administered with different concentrations of sodium acetate (0, 0.5, 1 and 2 mM).
The experiments involved 48 h of pre-incubation and 72 h of drug recovery, both in […]
Cell viability percentages (%)
Complex Acetate concentration (mM)

[3] = tested on: A2780 ovarian cancer cells; assay: Ruthenium accumulation in cancer cells (ICP-MS); format: cell-based, human; conditions: for Cell Ru: A2780, 1/3 x IC50, 24 h drug exposure, no recovery time; for Cell accum.: A2780, 24 h, 1/3 x IC50
Procedure: Briefly, 1.5 × 10^6 cells per well were seeded on a six-well plate. […] After this time, cells were washed, treated with trypsin-EDTA, counted and cell pellets were collected. Each pellet was digested overnight in concentrated nitric acid (73%) at 353 K; the resulting solutions were diluted using double-distilled water to give a final concentration of 5% HNO3 and the amount of Ru taken up by the cells was determined by ICP–MS. […]
Supplementary Table 3: Antiproliferative activity of complexes 1-8 in A2780 ovarian cancer cells and their cellular accumulation (expressed as ng Ru per million cells).
The latter experiments were carried out using equipotent concentrations of the […]
experiments were performed as duplicates of triplicates in independent experiments and the error bars were calculated as the standard deviation from the mean. […]

[4] = tested on: calf thymus DNA; assay: Interaction with calf thymus DNA (ethanol precipitation, ICP-MS of Ru); format: binding; conditions: for free Ru in supernatant: CT-DNA, 1:3 complex:base pairs, 310 K
Procedure: Interaction with calf thymus DNA
Complex 2 was chosen as representative of the series. A stock solution of complex 2 (0.7 mM in 5 % acetonitrile/water) was prepared and aliquots of 66 μL were added to a solution of CT-DNA (final ratio 1:3 complex: base pairs-DNA) in water, 2 mM cacodylate buffer and 2 mM NaCl. The reaction mixture was incubated at 310 K, and aliquots of 300 μL were taken at different intervals during a period of 27 h. The DNA was then precipitated by addition of ethanol (700 μL, final concentration 70% v/v). Ru complexes which are strongly bound to CT-DNA will precipitate together with the DNA upon addition of ethanol, and, therefore the ruthenium concentration in the supernatant should decrease. However, no changes in the Ru concentration were detected by ICP-MS showing that the interaction between the complex 2 and DNA is weak (t = 0 h / 64.2 ± 0.7 µM, t = 24 h/ 65.1 ± 0 .3 µM free Ru). In contrast complex 8

[5] = tested on: CT-DNA; assay: Thermal stability (melting temperature) of CT-DNA by UV-Vis; format: binding, calf; conditions: for Tm: CT-DNA, 1:3 complex:base pairs, 2 mM cacodylate pH 7.4, 2 h 310 K
Procedure: Supplementary Table 6: Melting temperature (Tm) of CT-DNA in the presence of 8 or complex 2 (ratio 1:3, complex: base pairs-DNA). The reactions were carried out in cacodylate buffer (2 mM, pH 7.4), and samples incubated for 2 h at 310 K. […]
a variation in melting temperature between free DNA and DNA in the presence of the corresponding complex. * […] from free DNA using a T-test analysis. ** p < 0.01 from free DNA using a T-test analysis […]
Thermal stability of CT-DNA
The melting temperature of CT-DNA in the presence and absence of complex 2 [(p-cym)Ru(TsEn)Cl] was determined by UV-Vis spectroscopy (Supplementary Table 6). Higher melting temperatures indicate increased stabilization of the DNA, which is the effect produced by DNA-intercalators and often by direct metal coordination to […]
the nucleobases.11 Destabilization of DNA can result in a decrease of the melting […]
In the presence of complex 8, the melting temperature of CT-DNA increased In agreement with the literature, 12 by 14 K, in 2 mM NaCl, 2 mM cacodylate buffer.
This increase is due to Ru binding to DNA as well as intercalation. 12 However, upon increasing the chloride concentration by ca. 10x (20 mM NaCl) the melting temperature of CT-DNA in the presence of complex 8, increased only by 7 K. This effect has previously been reported and it is attributed to the partial inhibition of hydrolysis, and, therefore, inhibition of coordination to DNA. 12, 13
Experiments performed in the presence of complex 2, in 2 mM cacodylate buffer and […]
NaCl, no decrease of the melting temperature was observed. […]

[6] = pKa* of aqua adducts of the complexes; format: physicochemical; conditions: pKa value determined in deuterated solvent
Excerpt: Table 1 pKa* values for aqua adducts of catalysts 1–4 (and 8 for comparison) and turnover frequencies for transfer hydrogenation of NAD^+ using formate. | column: pKa*

[7] = Transfer hydrogenation of NAD+ to 1,4-NADH with formate, followed by 1H NMR
Procedure: Complexes 1–7 were dissolved in MeOH-d4/D2O (5:1 v/v, 1.4 mM, 4 ml). Solutions of sodium formate (35 mM, 4 ml) and NAD^+ in D2O (2.8 mM, 2 ml) were also prepared and incubated at 310 K. In a typical experiment, 200-μl aliquots of each solution were added to a 5-mm NMR tube and the pH* adjusted to 7.2±0.1 (total volume 0.635 ml, final concentrations: Ru complex 0.44 mM; NAD^+ 0.88 mM; formate 11.02 mM; molar ratio 1:2:25). ^1H NMR spectra were recorded at 310 K every 162 s until the completion of the reaction.
Molar ratios of NAD^+ and NADH were determined by integrating the peaks at 9.33 and 6.96 p.p.m. (NAD^+ and 1,4-NADH, respectively). The turnover number for the reaction was calculated as follows: […]
where In is the integral of the signal at n p.p.m. and [NAD^+]0 is the concentration of NAD^+ at the start of the reaction.

[8] = tested on: 9-ethylguanine; assay: Binding to model nucleobase 9-ethylguanine by 1H NMR; conditions: D2O, pH* 7.2 ± 0.1, 310 K
Procedure: Supplementary Table 4: Binding constants for formation of 9-EtG adducts of complexes 1-4 determined by 1H NMR. The experiments were performed in D2O, pH* 7.2 ± 0.1 and 310 K. Equilibrium was reached by the time the first 1H NMR spectrum was recorded (< 10 min). […]
DNA is believed to be the main target for [(bip)Ru(en)Cl]+ (8). Due to the structural similarity of the complexes 1-5 with complex 8, their binding to DNA was […]
Interaction with nucleobases
Initially, model nucleobases, 9-ethylguanine and 9-methyladenine were reacted with complexes 1-4 in D2O, 310 K and pH* 7.2 ± 0.1. The binding of the complexes to 9-EtG or 9-MeA was monitored by 1H-NMR spectroscopy. Peaks for the 9-EtG adducts were observed by the time the first spectrum was recorded (< 5 min after mixing), […]
equilibrium was reached rapidly. The binding constants for formation of 9-EtG adducts determined by NMR were between 60 and 106 mM-1 (Supplementary Table 4). These values are in the same range as that from the ethylenediamine complex [(bip)Ru(en)Cl]+ (K9-EtG= 60.3 mM-1),2 which also binds strongly to DNA.3, 4 The high resolution mass spectrum confirmed the formation of [(η6-arene)Ru(XEn)(9-EtG)]+ (Supplementary Table 5). The interaction of complexes 1-4 with 9-MeA was also investigated, but no reaction was detected by 1H-NMR.
It is well established that N7 of guanine is the preferred nucleotide binding site for many transition metals ions. 2-8 Furthermore, strong and selective binding to N7 of 9-EtG, has been observed for [(η6-arene)Ru(en)Cl]+.3, 4 A pH* titration of […]

[9] = A2780, 24 h drug exposure, no formate

With `CS(=O)(=O)[N-]CCN.[Cl-].[Ru+2].c1ccc(-c2ccccc2-c2ccccc2)cc1` [Complex 5, [(o-terp)Ru(MsEn)Cl]] the IC50 ([1]; A2780, Supplementary Table 3) was 12.4 ± 0.9 µM, the Cell viability ([2]; formate 0 mM) was 73.59 ± 0.04% and the Cell viability ([2]; formate 0.5 mM) was 71.9 ± 0.4%. The Cell viability ([2]; formate 1 mM) was 44.2 ± 0.2%, the Cell viability ([2]; formate 2 mM) was 5.8 ± 0.6% and the “Cell Ru” value [3] was 2.8 ± 0.3 ng x 106 cells. For the same compound, the Cell accum. [3] was 2.8 ng Ru/10^6 cells.
`Cc1ccc(S(=O)(=O)[N-]CCN)cc1.[Cl-].[Ru+2].c1ccc(-c2ccccc2-c2ccccc2)cc1` [Complex 6, [(o-terp)Ru(TsEn)Cl]] showed an IC50 ([1]; A2780, Supplementary Table 3) of 15.8 ± 0.8 µM, a Cell viability ([2]; formate 0 mM) of 72.8 ± 0.9% and a Cell viability ([2]; formate 0.5 mM) of 59 ± 3%. For the same compound, the Cell viability ([2]; formate 1 mM) was 43.6 ± 1.4%, the Cell viability ([2]; formate 2 mM) was 22.2 ± 0.8% and the “Cell Ru” value [3] was 2.1 ± 0.4 ng x 106 cells.
For `NCCN.[Cl-].[Ru+2].c1ccc(-c2ccccc2)cc1` [Complex 8, [(bip)Ru(en)Cl]^+, reference compound], the IC50 [1, 9] was 2.2 µM, the IC50 ([1]; A2780, Supplementary Table 3) was 2.17 ± 0.08 µM and the Cell viability percentages ([2]; acetate 0 mM) was 75.4 ± 2%. The Cell viability percentages ([2]; acetate 0.5 mM) was 73.1 ± 0.8%, the Cell viability percentages ([2]; acetate 1 mM) was 72 ± 1% and the Cell viability ([2]; formate 0.5 mM) was 71 ± 1%. For the same compound, the Cell viability ([2]; formate 1 mM) was 61 ± 1%, the Cell viability ([2]; formate 2 mM) was 39 ± 1% and ~39% and the “free Ru in supernatant” value ([4]; t = 0 h) was 58.3 ± 0.3 µM. The “free Ru in supernatant” value ([4]; t = 24 h) was 48.5 ± 0.6 µM, the “binding to calf thymus DNA” value ([4]; ICP-MS of Ru, up to 27 h at 310 K, 1:3 complex:DNA base pairs, 2 mM cacodylate pH 7.4, 2 mM NaCl) was “bind strongly” and the “increase of melting temperature of CT-DNA” value ([5]; 2 mM NaCl, 2 mM cacodylate buffer) was -259 °C. The “increase of melting temperature of CT-DNA” value ([5]; 20 mM NaCl) was -266 °C, the Tm ([5]; 2 mM NaCl) was 63.8 ± 0.8 °C and the Tm ([5]; 20 mM NaCl) was 67.1 ± 0.6 °C. The ΔTm ([5]; versus free DNA, 20 mM NaCl) was 7.9 °C.
`N.N.[Cl][Pt][Cl]` [cisplatin, reference compound] showed an IC50 [1, 9] of 1.2 µM.
For `Cc1ccc(C(C)C)cc1.NCC[N-]S(=O)(=O)c1ccc([N+](=O)[O-])cc1.[Cl-].[Ru+2]` [Complex 4, [(p-cym)Ru(NO2En)Cl]], the “pKa*” value [6] was 9.56±0.04, the “time for completion of the catalytic reaction” value ([7]; 6 mol equiv of NAD+) was 20.5 min and the “TOF D2O/MeOH-d4” value ([7]; 23% MeOH-d4/77% D2O, NAD+ 2 mol equiv, formate 25 mol equiv, 310 K, pH* 7.2) was 9.6 ± 0.3 h⁻¹. For the same compound, the “TOF D2O” value ([7]; D2O, NAD+ 2 mol equiv, formate 25 mol equiv, 310 K, pH* 7.2) was 4.1 ± 0.1 h⁻¹, the IC50 ([1]; A2780, Supplementary Table 3) was 14.7 ± 0.6 µM and the “Binding constant for formation of 9-EtG adducts” value [8] was 92.8 ± 1.0 mM⁻¹.
Work on `NCC[N-]S(=O)(=O)c1ccc(C(F)(F)F)cc1.[Cl-].[Ru+2].c1ccc(-c2ccccc2-c2ccccc2)cc1` [Complex 7, [(o-terp)Ru(TfEn)Cl]] yielded an IC50 ([1]; A2780, Supplementary Table 3) of 21.2 ± 0.1 µM, a Cell viability ([2]; formate 0 mM) of 40 ± 2% and a Cell viability ([2]; formate 0.5 mM) of 20.8 ± 0.6%. The Cell viability ([2]; formate 1 mM) was 11.9 ± 0.6%, the Cell viability ([2]; formate 2 mM) was 2.5 ± 0.7% and the “decrease in cell survival” value ([2]; A2780, formate increased from 0 to 2 mM) was “ca. 16 fold”. The “Cell Ru” value [3] was 2.4 ± 0.3 ng x 106 cells and the Cell accum. [3] was 2.4 ng Ru/10^6 cells.
With `O=C[O-].[Na+]` [formate, sodium formate] the “toxicity of formate itself to the cells” value ([2]; A2780, 0 to 2 mM) was “non-toxic”.
